# Test results from PMC5501099 (Malaria Journal, 2017).
# Assays:
# Anopheles campestris = experiment: Ivermectin lethal concentration / survivorship, membrane blood feeding; type: in vivo; details: An. campestris
# Protocol: (§1) Powdered formulation of ivermectin compound was obtained from Sigma-Aldrich (St. Louis, USA). […] Control blood meals consisted of previously frozen DMSO diluted in PBS to match the ratio of DMSO and PBS fed to mosquitoes in the ivermectin-containing blood meals.
# (§2) After blood feeding via a membrane feeder, unfed mosquitoes were removed and discarded. Blood-fed mosquitoes were held in 3.5-l plastic containers with access to 10% sucrose and kept in an incubator at 25 ± 1 °C and 70 ± 10% relative humidity, on a 12 h light:12 h dark photoperiod. Mosquito survivorship was monitored for 7 days, every 24 h dead mosquitoes were removed and recorded, and on day 7 all remaining mosquitoes were frozen and counted as alive.
# (§3) A non-linear mixed effects model with probit analysis was used to calculate LC50, LC25 and LC5 values with Statistical Analysis Software (SAS Institute Inc, Cary, NC, USA) as described previously. Hazard ratios for mosquito mortality at day 7 post blood meal were calculated using Poisson regression analysis with STATA version 12.1 (StataCorp LLC, College Station, TX, USA). Oocyst and sporozoite prevalence (i.e. proportion of infected mosquitoes) was compared by Fishers Exact test. Oocyst intensity (i.e. number of oocysts per infected mosquito) was compared by the Mann–Whitney U test. To determine if P. vivax infection altered mosquito survivorship post-ivermectin ingestion survival data were analysed by the Mantel–Cox method. The Fishers Exact, Mann–Whitney U, and survival analysis data were analysed with Prism 7 (GraphPad Software Inc, San Diego, CA, USA).
# Anopheles sawadwongporni = experiment: as above; type: in vivo; details: An. sawadwongporni
# Protocol: as §1, §2, §3
# P. falciparum = details: cited from earlier work
# [1] = cited from earlier work
# [2] = Population pharmacokinetic model of ivermectin in healthy Thai volunteers; type: in vivo, human; details: single oral 200 µg/kg
# Protocol: The first-order conditional estimation method with interaction was used throughout model development. Model diagnostics and automation were performed using Xpose version 4.0 [25], Pirana and Pearl-speaks-NONMEM (PsN; version 3.6.0). The objective function value (OFV; calculated by NONMEM as proportional to −2 × loglikelihood of data) was used to discriminate between hierarchical models. A difference between two models (ΔOFV) of >3.84 and >10.83 were considered statistically significant at a P value of <0.05 and <0.001, respectively. Models were assessed using standard goodness-of-fit and simulation-based diagnostics (i.e. numerical and visual predictive checks using 2000 simulations). The robustness of the final model was evaluated by bootstrapping (n = 1000).
# Different disposition models (one-, two- and three-compartment models) and absorption models (first-order and transit models) were evaluated to describe the pharmacokinetic structural model of ivermectin. Pharmacokinetic parameters were assumed to be log-normally distributed and inter-individual variability was implemented as exponential functions. […] The influence of other individual covariates including gender, age, haemoglobin, haematocrit, total bilirubin, direct bilirubin, alkaline phosphatase, aspartate aminotransferase, and alanine aminotransferase, serum creatinine, blood urea nitrogen, and albumin level were investigated using a stepwise covariate approach (P value <0.05 and <0.001 for forward and backward addition and deletion, respectively).
# There were no observations reported to be below the lower limit of quantification. […] A flexible transit absorption model (n = 2) improved the model fit substantially compared to the first-order absorption (∆OFV = −378). […] Implementing body weight as a covariate in the model also allowed for translation and interpretation to other study populations.
# [3] = 23 healthy Thai volunteers, plasma data of trial [24]
# [4] = post hoc estimate, median (interquartile range)
substance,measurement,setting,value
ivermectin,"IRR (Incidence Rate Ratio of mortality at day 7, treatment group divided by control group)",Anopheles campestris; ivermectin imbibed 15 ng/ml,1.8
same,"IRR (Incidence Rate Ratio of mortality at day 7, treatment group divided by control group)",Anopheles campestris; ivermectin imbibed 18 ng/ml,2.7
same,"IRR (Incidence Rate Ratio of mortality at day 7, treatment group divided by control group)",Anopheles campestris; ivermectin imbibed 20 ng/ml,2.5
same,"IRR (Incidence Rate Ratio of mortality at day 7, treatment group divided by control group)",Anopheles campestris; ivermectin imbibed 22 ng/ml,3.4
same,"IRR (Incidence Rate Ratio of mortality at day 7, treatment group divided by control group)",Anopheles campestris; ivermectin imbibed 25 ng/ml,3.4
same,"IRR (Incidence Rate Ratio of mortality at day 7, treatment group divided by control group)",Anopheles campestris; ivermectin imbibed 30 ng/ml,2.5
same,"IRR (Incidence Rate Ratio of mortality at day 7, treatment group divided by control group)",Anopheles campestris; ivermectin imbibed 35 ng/ml,2.5
same,"IRR (Incidence Rate Ratio of mortality at day 7, treatment group divided by control group)",Anopheles campestris; ivermectin imbibed 45 ng/ml,4.9
same,"IRR (Incidence Rate Ratio of mortality at day 7, treatment group divided by control group)",Anopheles campestris; ivermectin imbibed 50 ng/ml,5.3
same,LC5,Anopheles sawadwongporni; 7 days post blood meal,16.1 ng/mL
same,LC25,Anopheles sawadwongporni; 7 days post blood meal,0.0218 µg/mL
same,LC50,Anopheles sawadwongporni; 7 days post blood meal,0.0269 µg/mL
same,"IRR (Incidence Rate Ratio of mortality at day 7, treatment group divided by control group)",Anopheles sawadwongporni; ivermectin imbibed 4 ng/ml,0.3
same,"IRR (Incidence Rate Ratio of mortality at day 7, treatment group divided by control group)",Anopheles sawadwongporni; ivermectin imbibed 5 ng/ml,1.3
same,"IRR (Incidence Rate Ratio of mortality at day 7, treatment group divided by control group)",Anopheles sawadwongporni; ivermectin imbibed 6 ng/ml,0.3
same,"IRR (Incidence Rate Ratio of mortality at day 7, treatment group divided by control group)",Anopheles sawadwongporni; ivermectin imbibed 8 ng/ml,0.6
same,"IRR (Incidence Rate Ratio of mortality at day 7, treatment group divided by control group)",Anopheles sawadwongporni; ivermectin imbibed 10 ng/ml,1.1
same,"IRR (Incidence Rate Ratio of mortality at day 7, treatment group divided by control group)",Anopheles sawadwongporni; ivermectin imbibed 12 ng/ml,0.9
same,"IRR (Incidence Rate Ratio of mortality at day 7, treatment group divided by control group)",Anopheles sawadwongporni; ivermectin imbibed 15 ng/ml,2.1
same,"IRR (Incidence Rate Ratio of mortality at day 7, treatment group divided by control group)",Anopheles sawadwongporni; ivermectin imbibed 18 ng/ml,2.1
same,"IRR (Incidence Rate Ratio of mortality at day 7, treatment group divided by control group)",Anopheles sawadwongporni; ivermectin imbibed 20 ng/ml,2.7
same,"IRR (Incidence Rate Ratio of mortality at day 7, treatment group divided by control group)",Anopheles sawadwongporni; ivermectin imbibed 22 ng/ml,2.3
same,"IRR (Incidence Rate Ratio of mortality at day 7, treatment group divided by control group)",Anopheles sawadwongporni; ivermectin imbibed 25 ng/ml,5.3
same,"IRR (Incidence Rate Ratio of mortality at day 7, treatment group divided by control group)",Anopheles sawadwongporni; ivermectin imbibed 28 ng/ml,5.2
same,"IRR (Incidence Rate Ratio of mortality at day 7, treatment group divided by control group)",Anopheles sawadwongporni; ivermectin imbibed 30 ng/ml,8.0
same,"IRR (Incidence Rate Ratio of mortality at day 7, treatment group divided by control group)",Anopheles sawadwongporni; ivermectin imbibed 35 ng/ml,8.4
same,"IRR (Incidence Rate Ratio of mortality at day 7, treatment group divided by control group)",Anopheles sawadwongporni; ivermectin imbibed 40 ng/ml,9.4
same,Effect on P. falciparum oocyst intensity in An. gambiae,P. falciparum; LC25 or LC5 at DPI 0,no effect
same,Effect on oocyst prevalence of P. falciparum in An. gambiae,P. falciparum; ivermectin LC5 at DPI −3,reduced oocyst prevalence
same,Sporontocidal effect for P. falciparum in An. gambiae,P. falciparum; ivermectin LC25 at DPI 6 and 9,significant sporontocidal effect
same,Effect on P. falciparum prevalence in An. gambiae,P. falciparum; ivermectin LC25 ingested concomitantly (DPI 0),significantly reduced
same,Safety of repeated administration,"[1]; 400 µg/kg every two weeks for 12 weeks, adults, Sri Lanka and Brazil",safe
same,Safety and tolerability,"[1]; doses up to 2000 µg/kg, healthy volunteers",safe and well tolerated
same,"MTT mean transit absorption time, population estimate (%RSE)",[2]; [3],0.496 (17.1) h
same,"ka absorption rate constant, population estimate (%RSE)",[2]; [3],0.317 (3.97) h^−1
same,IIV of CL/F (%RSE),[2]; healthy Thai volunteers,23.1 (25.2) %CV
same,IIV of F relative bioavailability (%RSE),[2]; healthy Thai volunteers,10.7 (42.9) %CV
same,IIV of MTT (%RSE),[2]; healthy Thai volunteers,56.1 (36.2) %CV
same,IIV of VP/F (%RSE),[2]; healthy Thai volunteers,22.8 (36.0) %CV
same,"CL/F apparent oral elimination clearance, population estimate (%RSE)","[2]; healthy Thai volunteers, allometric scaling centred on 55 kg",9.02 (5.49) l/h
same,"Q/F apparent inter-compartmental clearance, population estimate (%RSE)","[2]; healthy Thai volunteers, centred on 55 kg",16.2 (5.34) l/h
same,AUC0–168,[2]; [4],1331 (919–1406) ng × h/ml
same,Cmax,[2]; [4],45.7 (40.3–46.9) ng/ml
same,Terminal half-life,[2]; [4],25.0 (23.7–29.5) h
same,Tmax,[2]; [4],4.76 (4.67–5.04) h
